Reference: ChEMBL document CHEMBL1159025, “A Novel Hydrolyzable Tannin and Related Compounds Isolated from the Leaf Surface of Chrysolepis sempervirens” (1992)
The source made the active and inactive calls. No cut-off for these calls is given here.

Assays:
HeLa = assay: Cytotoxicity against human HeLa cells at 100 ug/ml; assay type: functional
Pseudomonas aeruginosa = assay: Antimicrobial activity against Pseudomonas aeruginosa ATCC 25619 at 1000 ug/ml by macro-dilution broth culture method; assay type: functional, organism-based
Candida albicans = assay: Antimicrobial activity against Candida albicans ATCC 18804 at 1000 ug/ml by macro-dilution broth culture method; assay type: functional, organism-based
Staphylococcus aureus = assay: Antimicrobial activity against Staphylococcus aureus ATCC 6538 at 1000 ug/ml by macro-dilution broth culture method; assay type: functional, organism-based

| SMILES | Activity (HeLa) [%] | Activity (Pseudomonas aeruginosa) | Activity (Candida albicans) | Activity (Staphylococcus aureus) |
| --- | --- | --- | --- | --- |
| O=C1OC[C@H]2OC(=O)c3cc(O)c(O)c(O)c3-c3c(O)c(O)c(O)c4c3C(=O)O[C@H]([C@H]3OC(=O)c5c-4c(O)c(O)c(O)c5[C@H]3O)[C@@H]2OC(=O)c2cc(O)c(O)c(O)c2-c2c1cc(O)c(O)c2O [CASTALAGIN] | 70 | inactive | inactive | inactive |
| O=C1OC[C@H]2OC(=O)c3cc(O)c(O)c(O)c3-c3c(O)c(O)c(O)c4c3C(=O)O[C@H]([C@@H](O)[C@@H](O)c3c(O)c(O)c(O)c-4c3C(=O)O)[C@@H]2OC(=O)c2cc(O)c(O)c(O)c2-c2c1cc(O)c(O)c2O [CHINQUAPINIC ACID] | 70 | inactive | inactive | inactive |
| O=C1OCC2OC(=O)c3cc(O)c(O)c(O)c3-c3c(O)c(O)c(O)c4c3C(=O)OC(C2OC(=O)c2cc(O)c(O)c(O)c2-c2c1cc(O)c(O)c2O)C1OC(=O)c2c-4c(O)c(O)c(O)c2C1O (configuration not stated) [VESCALAGIN] | 70 | inactive | inactive | inactive |
